Experimental data reported in US4956384A, “1,4:3,6-dianhydrosorbitol 2-mononitrate and 5-mononitrate esters and pharmaceutical compositions therefrom” (Chiesi Farmaceutici S.p.A., priority 1987, dated 1990).
Where two headings read alike, the source gives them in different places.

What was measured:
[1] = Hypotensive activity in anesthetized rats (mean arterious pressure, i.v. bolus); format: in vivo, male albino rats (D strain, Charles River); details: for Potency ratio, In vivo: Table III; for ED20: iv, anesthetized rat, read-out: ED20, dose reducing by 20% the mean arterious pressure (graphically calculated)
Protocol: Male albino rats were used (D strain, Charles River) anesthetized with a starting dose of sodium pentobarbital of 60 mg/kg i.p. and thermoregulated at 37° C. Mean arterious pressure was monitored at right carotidis arteria, while the compounds were administered as a bolus into the jugular vein, at constant volumes of 0.3 and 1 ml/kg.
The results, expressed as ED20, dose causing a 20% reduction in the mean arterious pressure (graphically calculated) are expressed in table III, relating to compounds substituted at the 2- and 5-positions.

[2] = test system: helicoidal strips of rabbit aorta; assay: In vitro vasodilating activity: inhibition of K+-induced contraction of aorta strips; format: cell-based, male albino rabbits (New Zealand strain); details: for IC50: Oryctolagus cuniculus, K+ 100 mM, read-out: ED50 (concentration causing a 50% inhibition of contraction); for Potency ratio, In vitro: Table III; for times more active than the starting mononitrate: in vitro, II vs IS-5N, X vs IS-2N
Protocol: Aorta strips from male albino rabbits (New Zealand strain), prepared according to the method by Furchgott and Bhadrakom--J. Pharm. Exp. Ther. 108, 129 (1953), were contracted with a solution enriched in K^+ (100 mM). When the contraction was stable, the test compounds were added, according to the method of cumulative dosages.
The responses were isometrically recorded and expressed as contraction percentage inhibition. The concentration causing 50% inhibition (ED50) was calculated on the basis of the equation of the linear tract of the dose-response curves. The obtained results expressed as ED50 values are reported in tables I and II (which respectively relate to the compounds substituted at the 2-and and 5-positions), together with the values of the octanol/water partition coefficient. The potency ratio for each compound, in comparison with the starting mononitrate, IS-2-N and IS-5-N, is reported in the same tables.

[3] = octanol/water partition coefficient; format: physicochemical; details: for logP: octanol/water, read-out: Partition coeff. (octanol/H2O) (converted)
[4] = Arterious pressure in the anesthetized rabbit, in vein administration; format: in vivo
Source text: The above results are confirmed also in another animal species.

[5] = Table I, 2-acyl derivatives of isosorbide 5-nitrate
[6] = Table II, 5-acyl derivatives of isosorbide 2-nitrate

SMILES	Potency ratio, In vivo ([1]; relative to IS-5-N)	ED20 [1] [µmol/kg]	hypotensive activity in words ([1]; rat)	IC50 [2, 5] [µM]	Potency ratios (confidence limits) ([2]; Table I, in comparison with isosorbide 5-nitrate)	Potency ratio, In vitro ([2]; relative to IS-5-N)	times more active than the starting mononitrate [2]	times more lipophilic than the starting mononitrate [3]	logP [3, 5]	reduction in arterious pressure [4]	strength of arterious pressure reduction higher than that of IS-2N ([4]; vs IS-2N)	strength of arterious pressure reduction higher than that of IS-5N ([4]; vs IS-5N) [times]	Potency ratio, In vivo ([1]; relative to IS-2-N)	IC50 [2, 6] [µM]	Potency ratios (confidence limits) ([2]; Table II, in comparison with isosorbide 2-nitrate)	Potency ratio, In vitro ([2]; relative to IS-2-N)	logP [3, 6]
COc1cc(C(=O)O[C@H]2CO[C@H]3[C@@H]2OC[C@H]3O[N+](=O)[O-])cc(OC)c1OC [II, 1,4:3,6-dianhydrosorbitol 2-(3,4,5-trimethoxy)-benzoate 5-nitrate]	≈ 79	1.9	remarkable hypotensive activity in both "in vitro" and "in vivo" tests	2.72	113.48 (72.30-172.85)	113	about 110 times	about 140 times	2.09	dose-depending reduction in arterious pressure	about 10 times	~100	–	–	–	–	–
COc1cc(C(=O)O[C@@H]2CO[C@H]3[C@@H]2OC[C@@H]3O[N+](=O)[O-])cc(OC)c1OC [X, 1,4:3,6-dianhydrosorbitol 5-(3,4,5-trimethoxy)-benzoate 2-nitrate]	–	0.4	–	–	–	–	1.58 times	200 times	–	–	–	–	≈ 30	13.8	1.58 (1.13-2.19)	1	2.08
